Laboratory results taken from ChEMBL document CHEMBL2417474, “Synthesis, antiproliferative and anti-inflammatory activities of some novel 6-aryl-2-(p-(methanesulfonyl)phenyl)-4,5-dihydropyridazi-3(2H)-ones” (Eur J Med Chem, 2013).

Test system: CAKI-1
Test: Growth inhibition of human CAKI-1 cells assessed as cell growth at 10 uM after 48 hrs by sulforhodamine B assay
Type: functional
Settings: CAKI-1, 48 h, read-out: Activity

For `Cc1cc(O)ccc1C1=NN(c2ccc(S(C)(=O)=O)cc2)C(=O)CC1`, the growth at 10 µM was 25.4%.
In the case of `CCc1ccc(C2=NN(c3ccc(S(C)(=O)=O)cc3)C(=O)CC2)cc1`, the growth at 10 µM was 16.6%.
